ChEMBL document CHEMBL5729177, “GLS1 inhibitors for treating disease” (2022)

Target: T1, Glutaminase kidney isoform, mitochondrial (Homo sapiens, UniProt O94925)
T1 sequence (O94925 whole entry): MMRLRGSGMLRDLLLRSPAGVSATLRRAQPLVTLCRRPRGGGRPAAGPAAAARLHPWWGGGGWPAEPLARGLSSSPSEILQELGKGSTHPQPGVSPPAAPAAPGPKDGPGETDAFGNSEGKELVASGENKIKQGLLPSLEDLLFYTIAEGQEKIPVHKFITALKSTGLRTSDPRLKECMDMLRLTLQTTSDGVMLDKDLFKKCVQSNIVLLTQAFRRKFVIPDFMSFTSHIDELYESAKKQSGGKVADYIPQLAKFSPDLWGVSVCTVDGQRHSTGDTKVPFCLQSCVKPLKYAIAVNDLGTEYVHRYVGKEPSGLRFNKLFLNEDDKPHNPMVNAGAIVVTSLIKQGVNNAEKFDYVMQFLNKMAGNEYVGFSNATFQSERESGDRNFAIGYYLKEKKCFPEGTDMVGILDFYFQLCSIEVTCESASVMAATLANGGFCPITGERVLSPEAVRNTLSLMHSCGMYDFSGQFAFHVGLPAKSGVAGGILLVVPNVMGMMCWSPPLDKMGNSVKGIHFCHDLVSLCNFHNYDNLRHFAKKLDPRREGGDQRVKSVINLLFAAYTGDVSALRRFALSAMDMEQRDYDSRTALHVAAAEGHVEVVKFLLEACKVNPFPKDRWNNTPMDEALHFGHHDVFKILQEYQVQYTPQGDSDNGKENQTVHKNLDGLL
Assay: Enzymatic Activity Assay: The inhibition of purified recombinant human GAC by varying concentrations of inhibitors is assessed via a dual-coupled enzymatic assay. The glutamate produced by the glutaminase reaction is used by glutamate oxidase to produce α-ketoglutarate, ammonia, and hydrogen peroxide, with this hydrogen peroxide subsequently being used by horseradish peroxidase to produce resorufin in the presence of Amplex UltraRed. The assay buffer consisted of 50 mM Hepes (pH 7.4), 0.25 mM EDTA and 0.1 mM Triton X-100. GAC was incubated with potassium phosphate (10 minutes at room temperature) prior to incubation with inhibitor (10 minutes at room temperature). The final reaction conditions were as follows: 2 nM GAC, 50 mM potassium phosphate, 100 mU/mL glutamate oxidase (Sigma), 1 mM glutamine (Sigma), 100 mU/mL horseradish peroxidase (Sigma), 75 μM Amplex UltraRed (Life Technologies), and 1% (v/v) DMSO. The production of resorufin was monitored on a Perkin Elmer Envision plate reader (excitation 530 nm, emission 590 nm) either in a kinetics or endpoint mode (at 20 minutes). IC50 values were calculated using a four-parameter logistic curve fit.

- IC50: < 100 nM
SMILES: O=C(NCc1cc(OC(F)(F)F)ccc1F)c1cn(CCC(F)Cn2cc(C(=O)NCc3ccccn3)nn2)nn1 (stereo unspecified)
